From US20260144799A1, “COMPOSITION COMPRISING A FIRST RAS INHIBITOR, SECOND RAS INHIBITOR AND A SHP2 INHIBITOR FOR USE IN THE TREATMENT OF CANCER” (Revolution Medicines, Inc., priority 2022, published 2026)

Key:
[1] = test system: eLL2 KRAS^WT/G12C NRAS^−/− A2 model; assay: Tumor cell growth in vivo, murine syngeneic eLL2 KRAS^WT/G12C NRAS^−/− A2 model; design: species or system C57BL/6J mice; conditions: on treatment; RMC-4550 30 mg/kg po qd
Protocol: Methods: Effects of Compound A and combination therapy with Compound B and/or RMC-4550 (a SHP2 inhibitor) on tumor cell growth in vivo were evaluated in the murine syngeneic eLL2 KRAS^WT/G12C NRAS^−/− A2 model using female C57BL/6J mice (6-8 weeks old). Mice were implanted with tumor cells (3×10^6 cells/mouse) in DMEM medium without supplements subcutaneously in the upper right flank. Once tumors reached an average size of ˜130 mm^3, mice were randomized to treatment groups to start the administration of test articles or vehicle. Compound A was administered by oral gavage once daily (po qd) at 200 mg/kg, compound B was administered by oral gavage once daily (po qd) at 25 mg/kg and RMC-4550 was administered by oral gavage once daily (po qd) at 30 mg/kg. In the dual combinations the compounds were administered at the same dose as the monotherapies qd. In the triple combination Compound A was dosed at 200 mg/kg po qd, Compound B was dosed at 50 mg/kg po q2d and RMC-4550 was dosed at 20 mg/kg po qd. The administration of Compound A, Compound B and RMC-4550 was ceased after 60 days of treatment in the monotherapy and combination groups. Body weight and tumor volume (using calipers) was measured twice weekly until study endpoints.

[2] = test system: eLL2 KRAS^WT/G12C NRAS^−/− A2 tumors; assay: Tumor immune profile by flow cytometry in response to therapy; assay type: in vivo, murine; conditions: 4 days of treatment, tumors collected 24 hours post last dose, 3 animals/group
Protocol: Methods: The tumor immune profile of the murine syngeneic eLL2 KRAS^WT/G12C NRAS^−/− A2 tumors (3 animals/group) was evaluated in response to therapy by flow cytometry. The mono- and combination therapies were administered for 4 days at the concentrations described in FIG. 1 A-C. 24 hours post last dose the tumors were collected, tumor tissue was minced, processed with the Dri Tumor & Tissue Dissociation Reagent from BD Biosciences, and homogenized with the gentleMACS™ Dissociator. The cell suspension was incubated at 4° C. for 30 minutes with Mouse BD Fc Block (Clone 2.4G2 from BD Pharmingen), 10 minutes with Blue Dead Cell Stain Kit (from Invitrogen) and 30 min in cell staining buffer. […]

SMILES: Cc1nc(N2CCC3(CC2)CO[C@@H](C)[C@H]3N)c(CO)nc1-c1cccc(Cl)c1Cl [RMC-4550]
- effect on tumor growth (in words) [1]: tumor growth inhibition
- Ly6C+ myeloid derived suppressor cells in tumor [2]: only a slight decrease
